Test results reported in paper PMC6134108, “Nystatin-like Pseudonocardia polyene B1, a novel disaccharide-containing antifungal heptaene antibiotic” (Scientific Reports, 2018).
In brackets after ≈: the same amount, converted by molar mass. Like-named read-outs stand apart in the source and are kept apart here.

Legend:
ICR mice [1] = test: Single intravenous dose acute toxicity; format: in vivo
Protocol: (§1) All in vivo mouse toxicity studies were conducted according to Testing Guidelines for Safety Evaluation of Drugs[32] and the Organisation for Economic Co-operation and Development (OECD) Guideline[33]. Male and female ICR mice were used 7 weeks old for the toxicity test. […] The single doses were 1, 2.5, and 5 mg per kg body weight.

[2] = Single intravenous dose acute toxicity; format: in vivo, mice; details: ICR, mouse, in vivo, single intravenous administration
Protocol: as §1

in vivo [3] = details: male, SD, rat, iv, 0.5 mg/kg
horse blood cells = format: cell-based; details: 90% hemolysis against horse blood cells; ± percentage standard deviation
Protocol: (§2) For the minimum inhibitory concentration (MIC) assay, strains for testing were grown on YPD agar for 24 hours, and subcultured to YPD broth medium. Whole strains were incubated for 18 hours at 35 °C by shaking incubator. Grown organisms were diluted with fresh RPMI 1640 medium to appropriate concentration, 5 × 10^4 CFU/ml. Cultures were inoculated to 96-well plates containing antifungal medium. All compounds were dissolved using Dimethyl Sulfoxide (DMSO) and diluted broth media. Fungal diluted solution and antifungal medium were mixed at 1:1 ratio so total 200 ul mixed medium was made. Whole experiment plates were incubated for 24 hours at 37 °C. […] The MICs were calculated in duplicate using the Clinical and Laboratory Standards Institute M27-A3 microbroth methodology. Hemolysis experiments and the 3-(4,5-dimethylthiazol-2-yl)-5-(3-carboxymethoxyphenyl)-2-(4-sulfophenyl)-2H-tetrazolium (MTS) cell proliferation colorimetric assay were performed following known procedures[12],[27],[29].

[4] = 1 mg/kg dose
[5] = system: Saccharomyces cerevisiae ATCC9035; test: MIC assay (CLSI M27-A3 microbroth); format: cell-based; details: Saccharomyces cerevisiae ATCC9035; read-out: Antifungal activity (MIC)
Protocol: as §2

C. albicans SC5314 = test: MIC assay (CLSI M27-A3 microbroth); format: cell-based; details: Candida albicans; C. albicans SC5314; no visible growth; read-out: Antifungal activity (MIC)
Protocol: as §2

C. albicans SL28 = test: MIC assay (CLSI M27-A3 microbroth); format: cell-based; details: Candida albicans; C. albicans SL28; no visible growth; read-out: Antifungal activity (MIC)
Protocol: as §2

[6] = system: Cryptococcus humicola ATCC9949; test: MIC assay (CLSI M27-A3 microbroth); format: cell-based; details: Vanrija humicola; Cryptococcus humicola ATCC9949; read-out: Antifungal activity (MIC)
Protocol: as §2

C. albicans SL38 = test: MIC assay (CLSI M27-A3 microbroth); format: cell-based; details: Candida albicans; C. albicans SL38; no visible growth; read-out: Antifungal activity (MIC)
Protocol: as §2

[7] = system: Candida albicans KCTC7965; test: MIC assay (CLSI M27-A3 microbroth); format: cell-based; details: Candida albicans KCTC7965; no visible growth; read-out: Antifungal activity (MIC)
Protocol: as §2

ICR mice [8] = test: 7-day repeated intravenous dose toxicity; format: in vivo
Protocol: (§3) All in vivo mouse toxicity studies were conducted according to Testing Guidelines for Safety Evaluation of Drugs[32] and the Organisation for Economic Co-operation and Development (OECD) Guideline[33]. Male and female ICR mice were used 7 weeks old for the toxicity test. […]

[9] = 7-day repeated intravenous dose toxicity; format: in vivo, mice; details: both sexes, ICR, mouse, in vivo; mice, 7-day repeated intravenous doses; read-out: MTD, maximal tolerated dose
Protocol: as §3

[10] = system: ergosterol-containing membranes; test: Preliminary SPR experiments; format: binding; details: ergosterol-containing membranes, unpublished data
in vivo [11] = details: mouse, 1 mg/kg
Description: Supplement 41598_2018_31801_MOESM1_ESM.docx, table 4: Table S4.

## C[C@@H]1[C@H](O)[C@@H](C)/C=C/C=C/C=C/C=C/C=C/C=C/C=C/[C@H](O[C@@H]2O[C@H](C)[C@@H](O)[C@H](N)[C@@H]2O)C[C@@H]2O[C@](O)(C[C@@H](O)C[C@@H](O)[C@H](O)CC[C@@H](O)C[C@@H](O)CC(=O)O[C@H]1C)C[C@H](O)[C@H]2C(=O)O [Amphotericin B, amphotericin B]
ICR mice [1]; female, single iv 1mg/kg, day 0
  Deaths on day after start of treatment: 0
ICR mice [1]; female, single iv 1mg/kg, day 1
  Deaths on day after start of treatment: 0
ICR mice [1]; female, single iv 1mg/kg, day 2
  Deaths on day after start of treatment: 1
ICR mice [1]; female, single iv 1mg/kg, day 3
  Deaths on day after start of treatment: 0
ICR mice [1]; female, single iv 1mg/kg, day 4
  Deaths on day after start of treatment: 0
ICR mice [1]; female, single iv 1mg/kg, day 5
  Deaths on day after start of treatment: 0
ICR mice [1]; female, single iv 1mg/kg, day 6
  Deaths on day after start of treatment: 0
ICR mice [1]; female, single iv 1mg/kg, day 7
  Deaths on day after start of treatment: 0
ICR mice [1]; female, single iv 2.5mg/kg, day 0
  Deaths on day after start of treatment: 0
ICR mice [1]; female, single iv 2.5mg/kg, day 1
  Deaths on day after start of treatment: 1
ICR mice [1]; female, single iv 2.5mg/kg, day 2
  Deaths on day after start of treatment: 3
ICR mice [1]; female, single iv 2.5mg/kg, day 3
  Deaths on day after start of treatment: 0
ICR mice [1]; female, single iv 2.5mg/kg, day 4
  Deaths on day after start of treatment: 0
ICR mice [1]; female, single iv 2.5mg/kg, day 5
  Deaths on day after start of treatment: 0
ICR mice [1]; female, single iv 2.5mg/kg, day 6
  Deaths on day after start of treatment: 1
ICR mice [1]; female, single iv 2.5mg/kg, day 7
  Deaths on day after start of treatment: 0
ICR mice [1]; female, single iv 5mg/kg, day 0
  Deaths on day after start of treatment: 4
ICR mice [1]; female, single iv 5mg/kg, day 1
  Deaths on day after start of treatment: 0
ICR mice [1]; female, single iv 5mg/kg, day 2
  Deaths on day after start of treatment: 1
ICR mice [1]; female, single iv 5mg/kg, day 3
  Deaths on day after start of treatment: 0
ICR mice [1]; female, single iv 5mg/kg, day 4
  Deaths on day after start of treatment: 0
ICR mice [1]; female, single iv 5mg/kg, day 5
  Deaths on day after start of treatment: 0
ICR mice [1]; female, single iv 5mg/kg, day 6
  Deaths on day after start of treatment: 0
ICR mice [1]; female, single iv 5mg/kg, day 7
  Deaths on day after start of treatment: 0
ICR mice [1]; male, single iv 1mg/kg, day 0
  Deaths on day after start of treatment: 0
ICR mice [1]; male, single iv 1mg/kg, day 1
  Deaths on day after start of treatment: 0
ICR mice [1]; male, single iv 1mg/kg, day 2
  Deaths on day after start of treatment: 0
ICR mice [1]; male, single iv 1mg/kg, day 3
  Deaths on day after start of treatment: 0
ICR mice [1]; male, single iv 1mg/kg, day 4
  Deaths on day after start of treatment: 0
ICR mice [1]; male, single iv 1mg/kg, day 5
  Deaths on day after start of treatment: 0
ICR mice [1]; male, single iv 1mg/kg, day 6
  Deaths on day after start of treatment: 0
ICR mice [1]; male, single iv 1mg/kg, day 7
  Deaths on day after start of treatment: 0
ICR mice [1]; male, single iv 2.5mg/kg, day 0
  Deaths on day after start of treatment: 0
ICR mice [1]; male, single iv 2.5mg/kg, day 1
  Deaths on day after start of treatment: 0
ICR mice [1]; male, single iv 2.5mg/kg, day 2
  Deaths on day after start of treatment: 2
ICR mice [1]; male, single iv 2.5mg/kg, day 3
  Deaths on day after start of treatment: 0
ICR mice [1]; male, single iv 2.5mg/kg, day 4
  Deaths on day after start of treatment: 0
ICR mice [1]; male, single iv 2.5mg/kg, day 5
  Deaths on day after start of treatment: 0
ICR mice [1]; male, single iv 2.5mg/kg, day 6
  Deaths on day after start of treatment: 0
ICR mice [1]; male, single iv 2.5mg/kg, day 7
  Deaths on day after start of treatment: 0
ICR mice [1]; male, single iv 5mg/kg, day 0
  Deaths on day after start of treatment: 5
ICR mice [1]; male, single iv 5mg/kg, day 1
  Deaths on day after start of treatment: 0
ICR mice [1]; male, single iv 5mg/kg, day 2
  Deaths on day after start of treatment: 0
ICR mice [1]; male, single iv 5mg/kg, day 3
  Deaths on day after start of treatment: 0
ICR mice [1]; male, single iv 5mg/kg, day 4
  Deaths on day after start of treatment: 0
ICR mice [1]; male, single iv 5mg/kg, day 5
  Deaths on day after start of treatment: 0
ICR mice [1]; male, single iv 5mg/kg, day 6
  Deaths on day after start of treatment: 0
ICR mice [1]; male, single iv 5mg/kg, day 7
  Deaths on day after start of treatment: 0
[2]; female mice, read-out: median lethal dose (LD50)
  LD50 at 7 days: 1.6 mg/kg
[2]; male mice, read-out: median lethal dose (LD50)
  LD50 at 7 days: 2.95 mg/kg
[2]; both sexes, mice, read-out: LD50, median lethal dose (dose causing 50% mortality)
  LD50 at 7 days: 2.3 mg/kg
In vivo [3]; in vivo
  half-life: 8.3 h
In vivo [3]; plasma
  AUC(0-inf): 1680 ng·h/mL
  AUC(0-t): 415 ng·h/mL
  MRT inf: 11.6 h
  Vd: 3.5 L/kg
  clearance: 5 mL/min/kg
Horse blood cells
  Hemolytic activity (MHC, minimum hemolytic concentration): 4.65 ± 0.17 µg/mL
[4]
  lethality in rats: killed all the tested rats
[5]
  MIC: 1 µg/mL (≈ 1.08 µM)
C. albicans SC5314
  MIC: 1 µg/mL (≈ 1.08 µM)
C. albicans SL28
  MIC: 1 µg/mL (≈ 1.08 µM)
[6]
  MIC: 0.5 µg/mL (≈ 0.541 µM)
C. albicans SL38
  MIC: 1 µg/mL (≈ 1.08 µM)
[7]
  MIC: 1 µg/mL (≈ 1.08 µM)
ICR mice [8]; female, repeated iv 0.5mg/kg, day 0
  Deaths on day after start of treatment: 0
ICR mice [8]; female, repeated iv 0.5mg/kg, day 1
  Deaths on day after start of treatment: 0
ICR mice [8]; female, repeated iv 0.5mg/kg, day 2
  Deaths on day after start of treatment: 0
ICR mice [8]; female, repeated iv 0.5mg/kg, day 3
  Deaths on day after start of treatment: 0
ICR mice [8]; female, repeated iv 0.5mg/kg, day 4
  Deaths on day after start of treatment: 0
ICR mice [8]; female, repeated iv 0.5mg/kg, day 5
  Deaths on day after start of treatment: 0
ICR mice [8]; female, repeated iv 0.5mg/kg, day 6
  Deaths on day after start of treatment: 0
ICR mice [8]; female, repeated iv 0.5mg/kg, day 7
  Deaths on day after start of treatment: 0
ICR mice [8]; female, repeated iv 1.5mg/kg, day 0
  Deaths on day after start of treatment: 0
ICR mice [8]; female, repeated iv 1.5mg/kg, day 1
  Deaths on day after start of treatment: 0
ICR mice [8]; female, repeated iv 1.5mg/kg, day 2
  Deaths on day after start of treatment: 0
ICR mice [8]; female, repeated iv 1.5mg/kg, day 3
  Deaths on day after start of treatment: 0
ICR mice [8]; female, repeated iv 1.5mg/kg, day 4
  Deaths on day after start of treatment: 0
ICR mice [8]; female, repeated iv 1.5mg/kg, day 5
  Deaths on day after start of treatment: 0
ICR mice [8]; female, repeated iv 1.5mg/kg, day 6
  Deaths on day after start of treatment: 0
ICR mice [8]; female, repeated iv 1.5mg/kg, day 7
  Deaths on day after start of treatment: 0
ICR mice [8]; male, repeated iv 0.5mg/kg, day 0
  Deaths on day after start of treatment: 0
ICR mice [8]; male, repeated iv 0.5mg/kg, day 1
  Deaths on day after start of treatment: 0
ICR mice [8]; male, repeated iv 0.5mg/kg, day 2
  Deaths on day after start of treatment: 0
ICR mice [8]; male, repeated iv 0.5mg/kg, day 3
  Deaths on day after start of treatment: 0
ICR mice [8]; male, repeated iv 0.5mg/kg, day 4
  Deaths on day after start of treatment: 0
ICR mice [8]; male, repeated iv 0.5mg/kg, day 5
  Deaths on day after start of treatment: 0
ICR mice [8]; male, repeated iv 0.5mg/kg, day 6
  Deaths on day after start of treatment: 0
ICR mice [8]; male, repeated iv 1.5mg/kg, day 0
  Deaths on day after start of treatment: 0
ICR mice [8]; male, repeated iv 1.5mg/kg, day 1
  Deaths on day after start of treatment: 0
ICR mice [8]; male, repeated iv 1.5mg/kg, day 2
  Deaths on day after start of treatment: 0
ICR mice [8]; male, repeated iv 1.5mg/kg, day 3
  Deaths on day after start of treatment: 0
ICR mice [8]; male, repeated iv 1.5mg/kg, day 4
  Deaths on day after start of treatment: 0
ICR mice [8]; male, repeated iv 1.5mg/kg, day 5
  Deaths on day after start of treatment: 0
ICR mice [8]; male, repeated iv 1.5mg/kg, day 6
  Deaths on day after start of treatment: 1
[9]
  MTD at 7 days: 1.5 mg/kg
[10]
  affinity compared with NPP B1: higher affinity
In vivo [11]
  AUC(0-inf): 29300 ng·h/mL
  AUC(0-t): 22200 ng·h/mL
  MRT inf: 5.5 h
  Vd: 0.2 L/kg
  clearance: 0.5 mL/min/kg
  half-life: 3.4 h
